Laboratory results as given in PubChem BioAssay (NCI).
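These data come from cells grown in 96-well plates and exposed to compound for 48 hours at five concentrations. Definition used: TGI = concentration required for complete inhibition of growth.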

Key:
Experiment in all cases: growth of human tumour cells (NCI), 48 h
[1] = tested on: 786-0 renal
[2] = tested on: A498 renal
[3] = tested on: A549 NSCLC
[4] = tested on: ACHN renal
[5] = tested on: BT-549 breast
[6] = tested on: CAKI-1 renal
[7] = tested on: DU-145 prostate
[8] = tested on: EKVX NSCLC
[9] = tested on: HCT-116 colon
[10] = tested on: HCT-15 colon
[11] = tested on: HL-60(TB) leukemia
[12] = tested on: HOP-62 NSCLC
[13] = tested on: HOP-92 NSCLC
[14] = tested on: HT29 colon
[15] = tested on: IGROV1 ovarian
[16] = tested on: K-562 leukemia
[17] = tested on: KM12 colon
[18] = tested on: LOX IMVI melanoma
[19] = tested on: M14 melanoma
[20] = tested on: MALME-3M melanoma
[21] = tested on: MDA-MB-231 breast
[22] = tested on: MDA-MB-435
[23] = tested on: MDA-N
[24] = tested on: MOLT-4 leukemia
[25] = tested on: NCI-H226 lung
[26] = tested on: NCI-H23 lung
[27] = tested on: NCI-H460 lung
[28] = tested on: NCI-H522 lung
[29] = tested on: NCI/ADR-RES ovarian
[30] = tested on: OVCAR-3 ovarian
[31] = tested on: OVCAR-4 ovarian
[32] = tested on: OVCAR-5 ovarian
[33] = tested on: OVCAR-8 ovarian
[34] = tested on: PC-3 prostate
[35] = tested on: RXF 393 renal
[36] = tested on: SF-268 CNS
[37] = tested on: SF-295 CNS
[38] = tested on: SK-MEL-2 melanoma
[39] = tested on: SK-MEL-28 melanoma
[40] = tested on: SK-MEL-5 melanoma
[41] = tested on: SN12C renal
[42] = tested on: SNB-19 CNS
[43] = tested on: SNB-75 CNS
[44] = tested on: SR leukemia
[45] = tested on: SW-620 colon
[46] = tested on: T-47D breast
[47] = tested on: TK-10 renal
[48] = tested on: U251 CNS
[49] = tested on: UACC-257 melanoma
[50] = tested on: UACC-62 melanoma
[51] = tested on: UO-31 renal
[52] = tested on: CCRF-CEM leukemia
[53] = tested on: COLO 205 colon
[54] = tested on: HS 578T breast
[55] = tested on: SK-OV-3 ovarian
[56] = tested on: HCC-2998 colon
[57] = tested on: MCF7 breast
[58] = tested on: RPMI-8226 leukemia
[59] = tested on: SF-539 CNS

Structure (SMILES): O=C(O)c1cc(=O)[nH]c(SCc2ccccc2)n1
- TGI [1]: > 100 µM
- TGI [2]: > 100 µM
- TGI [3]: > 100 µM
- TGI [4]: > 100 µM
- TGI [5]: > 100 µM
- TGI [6]: > 100 µM
- TGI [7]: > 100 µM
- TGI [8]: > 100 µM
- TGI [9]: > 100 µM
- TGI [10]: > 100 µM
- TGI [11]: > 100 µM
- TGI [12]: > 100 µM
- TGI [13]: > 100 µM
- TGI [14]: > 100 µM
- TGI [15]: > 100 µM
- TGI [16]: > 100 µM
- TGI [17]: > 100 µM
- TGI [18]: > 100 µM
- TGI [19]: > 100 µM
- TGI [20]: > 100 µM
- TGI [21]: > 100 µM
- TGI [22]: > 100 µM
- TGI [23]: > 100 µM
- TGI [24]: > 100 µM
- TGI [25]: > 100 µM
- TGI [26]: > 100 µM
- TGI [27]: > 100 µM
- TGI [28]: > 100 µM
- TGI [29]: > 100 µM
- TGI [30]: > 100 µM
- TGI [31]: > 100 µM
- TGI [32]: > 100 µM
- TGI [33]: > 100 µM
- TGI [34]: > 100 µM
- TGI [35]: > 100 µM
- TGI [36]: > 100 µM
- TGI [37]: > 100 µM
- TGI [38]: > 100 µM
- TGI [39]: > 100 µM
- TGI [40]: > 100 µM
- TGI [41]: > 100 µM
- TGI [42]: > 100 µM
- TGI [43]: > 100 µM
- TGI [44]: > 100 µM
- TGI [45]: > 100 µM
- TGI [46]: > 100 µM
- TGI [47]: > 100 µM
- TGI [48]: > 100 µM
- TGI [49]: > 100 µM
- TGI [50]: > 100 µM
- TGI [51]: > 100 µM

Structure (SMILES): C/C=C1/CN2CCc3c([nH]c4ccccc34)[C@@H]2C[C@@H]1Cc1[nH]ccc2c1[nH]c1cc(=O)ccc12
- TGI [1]: 3.19 µM
- TGI [2]: 4.94 µM
- TGI [4]: > 100 µM
- TGI [5]: 31.4 µM
- TGI [6]: 3.8 µM
- TGI [52]: > 100 µM
- TGI [53]: > 100 µM
- TGI [7]: 4.26 µM
- TGI [8]: 4.05 µM
- TGI [10]: 10.6 µM
- TGI [13]: 37.6 µM
- TGI [54]: 4.15 µM
- TGI [16]: > 100 µM
- TGI [19]: 4.78 µM
- TGI [22]: 3.45 µM
- TGI [23]: 4.51 µM
- TGI [24]: > 100 µM
- TGI [25]: > 100 µM
- TGI [26]: 3.34 µM
- TGI [27]: 64.4 µM
- TGI [29]: 3.49 µM
- TGI [30]: 5.15 µM
- TGI [31]: 3.73 µM
- TGI [32]: 8.64 µM
- TGI [33]: 3.17 µM
- TGI [34]: 6.88 µM
- TGI [36]: 3.33 µM
- TGI [39]: 4.5 µM
- TGI [55]: 4.4 µM
- TGI [41]: 3.17 µM
- TGI [42]: > 100 µM
- TGI [43]: 3.36 µM
- TGI [44]: > 100 µM
- TGI [45]: > 100 µM
- TGI [47]: 4.33 µM
- TGI [50]: 3.62 µM
- TGI [51]: 2.94 µM

Structure (SMILES): Cc1c(C#N)c2ccccc2c2nc3ccccc3n12
- TGI [1]: > 100 µM
- TGI [2]: > 100 µM
- TGI [3]: > 100 µM
- TGI [4]: > 100 µM
- TGI [5]: > 100 µM
- TGI [6]: > 100 µM
- TGI [52]: > 100 µM
- TGI [7]: > 100 µM
- TGI [8]: > 100 µM
- TGI [56]: > 100 µM
- TGI [9]: > 100 µM
- TGI [10]: > 100 µM
- TGI [11]: > 100 µM
- TGI [12]: > 100 µM
- TGI [13]: > 100 µM
- TGI [54]: > 100 µM
- TGI [15]: > 100 µM
- TGI [16]: > 100 µM
- TGI [17]: > 100 µM
- TGI [18]: > 100 µM
- TGI [57]: > 100 µM
- TGI [21]: 86.9 µM
- TGI [22]: > 100 µM
- TGI [23]: > 100 µM
- TGI [24]: > 100 µM
- TGI [25]: > 100 µM
- TGI [27]: > 100 µM
- TGI [28]: > 100 µM
- TGI [29]: > 100 µM
- TGI [30]: > 100 µM
- TGI [31]: > 100 µM
- TGI [32]: > 100 µM
- TGI [33]: > 100 µM
- TGI [34]: > 100 µM
- TGI [58]: > 100 µM
- TGI [35]: > 100 µM
- TGI [37]: > 100 µM
- TGI [59]: > 100 µM
- TGI [38]: > 100 µM
- TGI [39]: > 100 µM
- TGI [40]: 36.5 µM
- TGI [55]: > 100 µM
- TGI [41]: > 100 µM
- TGI [42]: > 100 µM
- TGI [43]: > 100 µM
- TGI [45]: > 100 µM
- TGI [47]: > 100 µM
- TGI [48]: > 100 µM
- TGI [49]: > 100 µM
- TGI [50]: > 100 µM
- TGI [51]: > 100 µM
